Our source for the MIC, inhibition and IC50 values is ChEMBL document CHEMBL5528082 (J Med Chem, 2024).

Series [1] deals with Staphylococcus aureus. Description: Antibacterial activity against TMP-resistant Staphylococcus aureus BHKS 231 incubated for 24 hrs by CLSI based broth microdilution assay. It counts as functional. On the technique in general: Broth dilution looks for growth in wells or tubes with falling amounts of substance.
The subject of series [2] is Staphylococcus aureus. The series is described as follows: Antibacterial activity against Staphylococcus aureus USA 300 incubated for 24 hrs by CLSI based broth microdilution assay. It counts as functional.
For series [3], the system named is Staphylococcus aureus. Description: Antibacterial activity against TMP-resistant Staphylococcus aureus BHKS 723 incubated for 24 hrs by CLSI based broth microdilution assay. It counts as functional.
The subject of series [4] is Staphylococcus aureus. The series is described as follows: Antibacterial activity against Staphylococcus aureus ATCC 25923 incubated for 24 hrs by CLSI based broth microdilution assay. The format is functional.
The subject of series [5] is Staphylococcus aureus. Description: Antibacterial activity against TMP-resistant Staphylococcus aureus BHKS 227 incubated for 24 hrs by CLSI based broth microdilution assay. It counts as functional.
In series [6] the test system is Staphylococcus aureus. Description: Antibacterial activity against TMP-resistant Staphylococcus aureus BHKS 721 incubated for 24 hrs by CLSI based broth microdilution assay. It counts as functional.
Series [7] in a line: Cytotoxicity against human NCM460 cells assessed as inhibition rate of cell growth at 100 uM incubated for 24 hrs by CCK8 assay relative to control. It counts as toxicity, cell-based. A general note: Tetrazolium assays rely on reduction of a dye to a coloured formazan, in cell work by metabolically active cells.
Series [8] has as its target T1, Dihydrofolate reductase (Homo sapiens, UniProt P00374).
T1 sequence (P00374 whole entry): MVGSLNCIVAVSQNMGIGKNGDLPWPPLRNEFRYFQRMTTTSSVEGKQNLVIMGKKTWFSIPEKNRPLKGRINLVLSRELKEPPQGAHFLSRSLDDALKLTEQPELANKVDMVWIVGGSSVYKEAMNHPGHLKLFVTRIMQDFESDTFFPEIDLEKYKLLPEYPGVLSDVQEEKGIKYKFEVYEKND
The series is described as follows: Inhibition of human DHFR.

Series [9] can be described thus: Cytotoxicity against HEK293 cells assessed as inhibition rate of cell growth at 100 uM incubated for 24 hrs by CCK8 assay relative to control. It counts as toxicity, cell-based. The settings on record: human.
Series [10] has as its system Dihydrofolate reductase (Staphylococcus aureus). The settings on record: dose 100.0 nM.
The target in series [11] is Dihydrofolate reductase (Staphylococcus aureus, UniProt P0A017). The series is described as follows: Inhibition of Staphylococcus aureus DHFR expressed in Escherichia coli BL21 (DE3) using DHF as substrate preincubated for 10 mins followed by substrate addition measured for 10 mins in presence of NADPH by spectrophotometry.
Sequence of Dihydrofolate reductase (Staphylococcus aureus, UniProt P0A017) (P0A017 whole entry): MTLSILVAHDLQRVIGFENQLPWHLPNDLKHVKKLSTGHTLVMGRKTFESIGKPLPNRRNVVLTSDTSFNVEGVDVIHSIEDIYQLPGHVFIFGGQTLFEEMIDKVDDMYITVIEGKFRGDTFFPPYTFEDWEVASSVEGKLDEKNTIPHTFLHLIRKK
Series [12] deals with Mycobacterium tuberculosis. Description: Antibacterial activity against Mycobacterium tuberculosis H37Ra. It counts as functional.
The target in series [13] is T2, Dihydrofolate reductase (Mycobacterium tuberculosis, UniProt P9WNX1).
T2 sequence (P9WNX1 whole entry): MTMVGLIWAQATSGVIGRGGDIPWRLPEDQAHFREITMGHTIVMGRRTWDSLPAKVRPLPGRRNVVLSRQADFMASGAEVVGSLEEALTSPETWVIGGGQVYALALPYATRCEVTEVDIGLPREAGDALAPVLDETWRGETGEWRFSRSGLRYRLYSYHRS
The series is described as follows: Inhibition of Mycobacterium tuberculosis DHFR.

The structures appear in SMILES notation. Values after ≈ are worked out from the molar mass of the structure shown.

A word on the MIC: it is the least concentration at which growth counts as inhibited. Low values mean greater potency, high ones weaker potency. As for `Cc1cc(NS(=O)(=O)c2ccc(N)cc2)no1` [SULFAMETHOXAZOLE], the MIC with Staphylococcus aureus [1] was determined as 256 µg/mL (≈ 1010 µM); against Staphylococcus aureus [2] it was 2 µg/mL (≈ 7.9 µM); with Staphylococcus aureus [3], 4 µg/mL (≈ 15.8 µM); against Staphylococcus aureus [4] it was 2 µg/mL (≈ 7.9 µM); in the series with Staphylococcus aureus [5], 4 µg/mL (≈ 15.8 µM); against Staphylococcus aureus [6] it was 0.5 µg/mL (≈ 1.97 µM).

By inhibition is commonly meant how much of the control response was suppressed. By IC50 is commonly meant the concentration that gives 50% inhibition. `COc1cc(C(C)C)c(Oc2cnc(N)nc2N)cc1-c1ccc(C(C)C)cc1`: the figures for the inhibition at 24 h, 100 µM in series [7] and in series [9] were 44% and 46.9%, respectively. Besides, the IC50 against Dihydrofolate reductase [8] amounted to 2910 nM; on Dihydrofolate reductase [11] it was 1.81 nM. For the same molecule, the MIC stood at 0.25 µg/mL (≈ 0.637 µM) against Staphylococcus aureus [2]; 4 µg/mL (≈ 10.2 µM) in the series on Staphylococcus aureus [3]; 0.25 µg/mL (≈ 0.637 µM) against Staphylococcus aureus [4]; 1 µg/mL (≈ 2.55 µM) against Staphylococcus aureus [5]; 4 µg/mL (≈ 10.2 µM) against Staphylococcus aureus [6]. This molecule registered an inhibition in series [10] of 55.7%.

Take `COc1cc(C(C)C)c(Oc2cnc(N)nc2N)cc1-c1ccc(Cl)cc1`: the inhibition at 24 h, 100 µM is 69.1% in series [7] and 16.4% in series [9]. Moreover, the MIC with Staphylococcus aureus [2] is 0.25 µg/mL (≈ 0.65 µM); in the series on Staphylococcus aureus [3], 16 µg/mL (≈ 41.6 µM); with Staphylococcus aureus [4], 0.25 µg/mL (≈ 0.65 µM); in the series with Staphylococcus aureus [5] it was 1 µg/mL (≈ 2.6 µM); against Staphylococcus aureus [6], 16 µg/mL (≈ 41.6 µM). The molecule also yielded an inhibition in series [10] of 94.3%. For the same molecule, at Dihydrofolate reductase [11], the IC50 was determined as 66.6 nM.

For the molecule `COc1cc(C(C)C)c(Oc2cnc(N)nc2N)cc1C1CC1`, the inhibition at 24 h, 100 µM in series [7] worked out at 4.06%; in series [9], 0.06%. Besides, the MIC in the series with Staphylococcus aureus [2] was determined as 0.5 µg/mL (≈ 1.59 µM); with Staphylococcus aureus [3] it was 32 µg/mL (≈ 102 µM); with Staphylococcus aureus [4], 1 µg/mL (≈ 3.18 µM); against Staphylococcus aureus [5], 4 µg/mL (≈ 12.7 µM); against Staphylococcus aureus [6] it was 16 µg/mL (≈ 50.9 µM). The molecule also displayed an inhibition in series [10] of 35.3%. The IC50 on Dihydrofolate reductase [11] was determined as 27.8 nM.

Regarding `COc1cc(C(C)C)c(Oc2cnc(N)nc2N)cc1I`, the MIC in series [12] was determined as 50 µg/mL (≈ 125 µM); against Staphylococcus aureus [2], 0.063 µg/mL (≈ 0.157 µM); against Staphylococcus aureus [3], 8 µg/mL (≈ 20 µM); in the series on Staphylococcus aureus [4], 0.125 µg/mL (≈ 0.312 µM); against Staphylococcus aureus [5], 0.5 µg/mL (≈ 1.25 µM); against Staphylococcus aureus [6], 8 µg/mL (≈ 20 µM). The inhibition at 24 h, 100 µM turned out to be 32.1% in [7] and 26.1% in series [9]. Moreover, the IC50 on Dihydrofolate reductase [13] amounted to 3500 nM; at Dihydrofolate reductase [8], 176000 nM; on Dihydrofolate reductase [11], 32.9 nM.

For the molecule `CCCCOc1cc(C(C)C)c(Oc2cnc(N)nc2N)cc1I`, the figures for the inhibition at 24 h, 100 µM in series [7] and in series [9] were 72.9% and 42.2%, respectively. The MIC was found to be 0.125 µg/mL (≈ 0.283 µM) against Staphylococcus aureus [2]; 8 µg/mL (≈ 18.1 µM) against Staphylococcus aureus [3]; 0.125 µg/mL (≈ 0.283 µM) in the series on Staphylococcus aureus [4]; 1 µg/mL (≈ 2.26 µM) against Staphylococcus aureus [5]; 4 µg/mL (≈ 9.04 µM) in the series on Staphylococcus aureus [6]. Further, in [10], the inhibition was found to be 50.8%. The IC50 at Dihydrofolate reductase [11] was 36.7 nM.

As to `COc1cc(C(C)C)c(Oc2cnc(N)nc2N)cc1-c1ccc(C(C)(C)C)cc1`, the inhibition at 24 h, 100 µM turned out to be 65.6% in [7] and 20.7% in series [9]. Moreover, the MIC against Staphylococcus aureus [2] was determined as 0.5 µg/mL (≈ 1.23 µM); against Staphylococcus aureus [3], 4 µg/mL (≈ 9.84 µM); against Staphylococcus aureus [4] it was 0.5 µg/mL (≈ 1.23 µM); against Staphylococcus aureus [5], 4 µg/mL (≈ 9.84 µM); in the series with Staphylococcus aureus [6], 4 µg/mL (≈ 9.84 µM). The same molecule gave an inhibition in [10] of 54.3%. Moreover, at Dihydrofolate reductase [11], the IC50 was determined as 37.9 nM.

With `COc1cc(C(C)C)c(Oc2cnc(N)nc2N)cc1-c1ccc(F)cc1`, the inhibition at 24 h, 100 µM in series [7] worked out at 60.3%; in series [9] it was 46.9%. Besides, the MIC is 0.25 µg/mL (≈ 0.679 µM) against Staphylococcus aureus [2]; 16 µg/mL (≈ 43.4 µM) in the series on Staphylococcus aureus [3]; 0.25 µg/mL (≈ 0.679 µM) in the series with Staphylococcus aureus [4]; 1 µg/mL (≈ 2.71 µM) against Staphylococcus aureus [5]; 16 µg/mL (≈ 43.4 µM) against Staphylococcus aureus [6]. This molecule also showed an inhibition in [10] of 27.2%. On Dihydrofolate reductase [11], the IC50 stood at 69.5 nM.

Consider `CC(C)c1cc(OCC2CCC2)c(I)cc1Oc1cnc(N)nc1N`, for which the inhibition at 24 h, 100 µM in series [7] stood at 13.2%; in [9], 57.9%. In addition, the MIC in the series with Staphylococcus aureus [2] was determined as 0.125 µg/mL (≈ 0.275 µM); against Staphylococcus aureus [3], 4 µg/mL (≈ 8.8 µM); in the series on Staphylococcus aureus [4], 0.125 µg/mL (≈ 0.275 µM); in the series on Staphylococcus aureus [5], 1 µg/mL (≈ 2.2 µM); against Staphylococcus aureus [6] it was 4 µg/mL (≈ 8.8 µM). The same molecule showed an inhibition in series [10] of 61.3%. The IC50 on Dihydrofolate reductase [11] was 7.69 nM.

As for `COc1cc(C(C)C)c(Oc2cnc(N)nc2N)cc1-c1cc(Cl)cc(Cl)c1`, the inhibition at 24 h, 100 µM in [7] turned out to be 66.2%; in [9] it was 39.7%. Further, the MIC with Staphylococcus aureus [2] is 0.125 µg/mL (≈ 0.298 µM); against Staphylococcus aureus [3] it was 4 µg/mL (≈ 9.54 µM); in the series on Staphylococcus aureus [4], 0.125 µg/mL (≈ 0.298 µM); in the series with Staphylococcus aureus [5], 1 µg/mL (≈ 2.38 µM); in the series on Staphylococcus aureus [6], 4 µg/mL (≈ 9.54 µM). The molecule further registered an inhibition in series [10] of 78.6%. Further, the IC50 at Dihydrofolate reductase [11] was found to be 15.4 nM.

Consider `COc1cc(C(C)C)c(Oc2cnc(N)nc2N)cc1-c1cc(F)cc(F)c1`, for which the figures for the inhibition at 24 h, 100 µM in series [7] and in series [9] were 52.1% and 45.2%, respectively. In addition, the MIC came to 0.5 µg/mL (≈ 1.29 µM) against Staphylococcus aureus [2]; 32 µg/mL (≈ 82.8 µM) with Staphylococcus aureus [3]; 1 µg/mL (≈ 2.59 µM) with Staphylococcus aureus [4]; 4 µg/mL (≈ 10.4 µM) with Staphylococcus aureus [5]; 32 µg/mL (≈ 82.8 µM) in the series on Staphylococcus aureus [6]. Further, the inhibition in [10] was > 100%. Further, the IC50 at Dihydrofolate reductase [11] was 41.8 nM.
